According to US7425548B2, “Materials and methods for immune system stimulation” (Variety Chidren's Hospital, priority 2004, dated 2008):

Legend:
[1] = tested on: I-κBα in RAW 264.7 macrophages; assay: I-κBα degradation, immunoblot; type: cell-based, mouse; conditions: RR1 100 μg/ml, western blot
Protocol: The cells were treated with RR1 at intervals of 15, 30, and 60 minutes. Degradation of I-κBα levels in cytoplasmic lysates was determined by immunoblot analysis using antimouse I-κBα mAb. I-κBα degradation. The degradation of IκB-α is a prerequisite for the activation of NF-κB. To determine the effect of RR1 on cellular IκB-α levels and its degradation, immunoblot analysis was performed with cytosolic lysates from RR1-treated RAW 264.7 macrophages for different time periods (0, 15 minutes, 30 minutes, 1 hour). The lysates were separated by SDS-PAGE on 12% gels and transferred to nitrocellulose membranes using a TransBlot apparatus (BIO-RAD, Hercules, Calif.). The membranes were hybridized with IκB-α specific monoclonal antibodies (1:1000) by the Western blot hybridization protocol (Lebron, F. et al. J Biol Chem., 2003, 278:25001-25008) using antimouse IκB-α antibody (CELL SIGNALING TECHNOLOGY, Inc, Beverly, Mass.) using the color detection system (BIO-RAD, Hercules, Calif.).

[2] = tested on: CEM tumor cell line; assay: MTT cytotoxicity / cell proliferation assay; type: cell-based, human; conditions: 24 hours, concentrations as high as 1000 μg/ml
Protocol: FIGS. 4A-4B show cytotoxic analysis of RR1 in normal lymphocytes (a) and tumor cell lines (b). Cells (10^6) were treated with RR1 for 24 hours and cytotoxicity assay performed using MTT cell proliferation kit (Roche Biochemicals). The percentage of surviving cells over control was plotted against RR1 concentrations.
Immunostimulating Properties. To measure the immune stimulatory property of RR1, the activation of the different subsets of lymphocytes, syntheses of cytokines such as interleukin (IL)-1β, IL-2, IL-4, IL-6, IL-10, IL-12 p70 and p40, IL-18, interferon (IFN)-α and γ, Tumor Necrosis factor (TNF)-α and β, monocyte chemo-attractant protein (MCP)-1, synthesis of nitric oxide (NO), and the extent of oxidative stress elicited in human lymphocytes was analyzed. Normal lymphocytes were isolated by the histopaque density gradient method from fresh blood drawn from healthy volunteers and utilized for various assays. Human leukemic (CEM) and multidrug resistant (CEM/VLB) cell lines were grown in RPMI medium supplemented with 10% fetal bovine serum and antibiotics in 5% CO2 incubator at 37° C.

[3] = tested on: HEK293 cells transfected with TLR2/6; assay: TLR signaling, IL-8 ELISA; type: cell-based, human; conditions: HEK/TLR2/6, RR1 0-100 μg/ml, 24 hours
Protocol: HEK293/TLR2/TLR6 cells (1×10^6) were treated with RR1 (0, 10, 50 and 100 μg/ml) at 37° C. for 24 hours and secreted IL-8 in the medium was analyzed by ELISA protocol.
(§1) TLR signaling. To determine the involvement of TLR signaling, parental HEK293 as well as HEK293 cells transfected with human TLR2, TLR6, TLR2/6 or TLR4/CD14/MD2 genes (cloned into pDUO plasmid), were used. These cells (0.5×10^6/ml) were incubated with 0-100 μg/ml of RR1 for 24 hours. Since these cells produce very low level of TNF-α and detectable levels of IL-8 upon activation, IL-8 secreted into the medium was analyzed using ELISA procedure. Incidentally, the IL-8 synthesis is also under the control of the transcription factor NF-κB.

[4] = tested on: normal lymphocytes; assay: Oxidative stress (GSH/GSSG levels); type: cell-based, human; conditions: for GSH / GSH/GSSG / GSSG: 24 hours
Protocol: Oxidative stress (GSH/GSSG levels). The measure of the reduced (GSH) as well as oxidized (GSSG) levels of glutathione and their ratio are useful indicators for oxidative stress. The levels of GSH and GSSG were assayed by a colorimetric method using Biotech GSH/GSSG-412 kit (Oxis Research, Portland, Oreg.) according to manufacturer's protocol. Briefly, normal blood samples from healthy donors were incubated with different concentrations of RR1 for 24 hours in a 5% CO2 incubator at 37° C. For GSSG, 100 μl of each of the treated sample was frozen at −70° C. for 4 hours, thawed and added 290 μl of 5% meta phosphoric acid (MPA). The samples were vortexed for 15-20 seconds and centrifuged at 1000×g for 10 minutes. MPA extract (50 μl) was added to 700 μl of GSSG buffer that was used for the calorimetric assay. For GSH measurement 50 μl of the whole blood was frozen at −70° C., thawed and added 350 μl of 5% MPA, vortexed for 15-20 seconds and centrifuged at 10,000×g for 10 minutes. MPA extract (50 μl) was added to 3 ml of the assay buffer and used for further analysis. MPA buffer mixture (200 μl) of each standard and sample was transferred to a spectrophotometer cuvette, added 200 μl of chromogen followed by 200 μl of enzyme in the order and incubated at room temperature for 5 minutes. Afterwards, 200 μl of NADPH was added into the cuvette and changes in the absorbance at 412 nm were recorded in a BECKMAN spectrophotometer. The reaction rates were plotted using the absorbance values and the levels of GSH and GSSG were determined.

[5] = tested on: HEK293 cells transfected with TLR6; assay: TLR signaling, IL-8 ELISA; type: cell-based, human; conditions: HEK/TLR6, RR1 0-100 μg/ml, 24 hours
Protocol: HEK293/TLR6 cells (1×10^6) were treated with RR1 (0, 10, 50, and 100 μg/ml) at 37° C. for 24 hours and secreted IL-8 in the medium was analyzed by ELISA protocol.
as §1

GSH ([4]; RR1 5 μg/ml): 365.08 ± 3.81 µM
GSH/GSSG ([4]; RR1 5 μg/ml): 14.05 ± 0.41
GSSG ([4]; RR1 5 μg/ml): 22.77 ± 0.58 µM
GSH ([4]; RR1 10 μg/ml): 366.10 ± 0.97 µM
GSH/GSSG ([4]; RR1 10 μg/ml): 14.34 ± 0.35
GSSG ([4]; RR1 10 μg/ml): 22.67 ± 0.41 µM
GSH ([4]; RR1 50 μg/ml): 364.43 ± 0.10 µM
GSH/GSSG ([4]; RR1 50 μg/ml): 14.25 ± 0.40
GSSG ([4]; RR1 50 μg/ml): 22.75 ± 0.55 µM
oxidative stress in lymphocytes ([4]; indicated by GSH, GSSG and their ratio): does not produce any oxidative stress
Substance: (1,4)-α-D-glucan [RR1]
time to complete removal of I-κBα expression [1]: 60 min
direct cytotoxic or cell proliferating effect (MTT) [2]: no direct cytotoxic or cell proliferating effect
IL-8 production [3]: copious induction of IL-8
IL-8 production [5]: copious induction of IL-8
